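Cells were grown in 96-well plates and exposed to each compound for 48 hours at five concentrations; endpoints were interpolated linearly between bracketing concentrations, or set to the highest concentration if not reached. Abbreviation: GI50, concentration required for 50% inhibition of growth.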 The source made the active and inactive calls. No stated cut-off is given here; in the data, active = GI50 up to about 1.1 µM and inactive = higher.
What was measured:
Assay in all cases: growth of human tumour cells (NCI), 48 h
IGROV-1 = system: IGROV-1
T47D = system: T47D
OVCAR-3 = system: OVCAR-3
MCF7 = system: MCF7
TK-10 = system: TK-10
UO-31 = system: UO-31
SNB-19 = system: SNB-19
ACHN = system: ACHN
SF-539 = system: SF-539
UACC-62 = system: UACC-62
HL-60 = system: HL-60
U-251 = system: U-251
MDA-MB-231 = system: MDA-MB-231
SF-295 = system: SF-295
SNB-75 = system: SNB-75
A498 = system: A498
NCI-H522 = system: NCI-H522
K562 = system: K562
OVCAR-5 = system: OVCAR-5
HCC 2998 = system: HCC 2998
EKVX = system: EKVX
CCRF-CEM = system: CCRF-CEM
SW-620 = system: SW-620
MDA-MB-435 = system: MDA-MB-435
SK-MEL-5 = system: SK-MEL-5
SN12C = system: SN12C
SK-OV-3 = system: SK-OV-3
NCI-H23 = system: NCI-H23
DU-145 = system: DU-145
HCT-116 = system: HCT-116
NCI-H460 = system: NCI-H460
A549 = system: A549
MOLT-4 = system: MOLT-4
OVCAR-4 = system: OVCAR-4
OVCAR-8 = system: OVCAR-8
COLO 205 = system: COLO 205
KM12 = system: KM12
SK-MEL-2 = system: SK-MEL-2
CAKI-1 = system: CAKI-1
NCI/ADR-RES = system: NCI/ADR-RES
HCT-15 = system: HCT-15
Hs-578T = system: Hs-578T
PC-3 = system: PC-3
NCI-H226 = system: NCI-H226
786-0 = system: 786-0
SF-268 = system: SF-268
HOP-92 = system: HOP-92
M14 = system: M14
Malme-3M = system: Malme-3M
UACC-257 = system: UACC-257
RPMI-8226 = system: RPMI-8226
BT-549 = system: BT-549
HT-29 = system: HT-29
SK-MEL-28 = system: SK-MEL-28
LOX IMVI = system: LOX IMVI

In the case of `O=C1C[C@@H](c2ccc(O)cc2)[C@@]2(O1)C(=O)O[C@H]([C@@H](O)CO)[C@@H]2O`, the GI50 (IGROV-1) was > 100 µM (inactive), the GI50 (T47D) was > 100 µM (inactive) and the GI50 (OVCAR-3) was > 100 µM (inactive). For the same molecule, the GI50 (MCF7) was > 100 µM (inactive), the GI50 (TK-10) was > 100 µM (inactive) and the GI50 (UO-31) was > 100 µM (inactive). For the same molecule, the GI50 (SNB-19) was > 100 µM (inactive), the GI50 (ACHN) was > 100 µM (inactive) and the GI50 (SF-539) was > 100 µM (inactive). The GI50 (UACC-62) was > 100 µM (inactive), the GI50 (HL-60) was > 100 µM (inactive) and the GI50 (U-251) was > 100 µM (inactive). For the same molecule, the GI50 (MDA-MB-231) was > 100 µM (inactive), the GI50 (SF-295) was > 100 µM (inactive) and the GI50 (SNB-75) was > 100 µM (inactive). For the same molecule, the GI50 (A498) was > 100 µM (inactive), the GI50 (NCI-H522) was > 100 µM (inactive) and the GI50 (K562) was > 100 µM (inactive). The GI50 (OVCAR-5) was > 100 µM (inactive), the GI50 (HCC 2998) was > 100 µM (inactive) and the GI50 (EKVX) was > 100 µM (inactive). The GI50 (CCRF-CEM) was > 100 µM (inactive), the GI50 (SW-620) was > 100 µM (inactive) and the GI50 (MDA-MB-435) was > 100 µM (inactive). The GI50 (SK-MEL-5) was > 100 µM (inactive), the GI50 (SN12C) was > 100 µM (inactive) and the GI50 (SK-OV-3) was > 100 µM (inactive). For the same molecule, the GI50 (NCI-H23) was > 100 µM (inactive), the GI50 (DU-145) was > 100 µM (inactive) and the GI50 (HCT-116) was > 100 µM (inactive). For the same molecule, the GI50 (NCI-H460) was > 100 µM (inactive), the GI50 (A549) was > 100 µM (inactive) and the GI50 (MOLT-4) was > 100 µM (inactive). The GI50 (OVCAR-4) was > 100 µM (inactive), the GI50 (OVCAR-8) was > 100 µM (inactive) and the GI50 (COLO 205) was > 100 µM (inactive). For the same molecule, the GI50 (KM12) was > 100 µM (inactive), the GI50 (SK-MEL-2) was > 100 µM (inactive) and the GI50 (CAKI-1) was > 100 µM (inactive). For the same molecule, the GI50 (NCI/ADR-RES) was > 100 µM (inactive), the GI50 (HCT-15) was > 100 µM and the GI50 (Hs-578T) was > 100 µM (inactive). For the same molecule, the GI50 (PC-3) was > 100 µM (inactive), the GI50 (NCI-H226) was > 100 µM (inactive) and the GI50 (786-0) was > 100 µM (inactive). The GI50 (SF-268) was > 100 µM (inactive), the GI50 (HOP-92) was > 100 µM (inactive) and the GI50 (M14) was > 100 µM (inactive). For the same molecule, the GI50 (Malme-3M) was > 100 µM (inactive), the GI50 (UACC-257) was > 100 µM (inactive) and the GI50 (RPMI-8226) was > 100 µM (inactive). For the same molecule, the GI50 (BT-549) was > 100 µM (inactive), the GI50 (HT-29) was > 100 µM (inactive) and the GI50 (SK-MEL-28) was > 100 µM (inactive). The GI50 (LOX IMVI) was > 100 µM (inactive).

Reference: ChEMBL document CHEMBL1201862, “PubChem BioAssay data set” (2004)
